Measured values published in BindingDB's records for patent US20240246935 (Plexium, Inc., 2024).

Target: Protein cereblon (Homo sapiens, UniProt Q96SW2)
Assay: Cereblon (CRBN) Target Engagement
Description: Cereblon target engagement was monitored by Bioluminescence Resonance Energy Transfer (BRET) in transfected HEK-293T cells using the NanoBRET TE Intracellular E3 Ligase Assay (Promega). Briefly, 384-well plates (white opaque plates, Corning 3574, low binding surface) were seeded with transfected HEK-293T cells (38 uL/well). 2 uL of 10 uM CRBN tracer (diluted 1:5 in Tracer Dilution Buffer) was added to each well. Plates were centrifuged at 320 g for 1 min at room temperature. Test compounds were added in a 11-point dilution series (typically […]) using a TECAN D300e Digital Dispenser. Plates were shaken for 2 minutes on a microplate shaker to mix compounds. Plates were centrifuged at 320 g for 1 min at room temperature, and subsequently incubated for 2 hours at 37 C.After incubation, plates were allowed to cool to room temperature for 15 minutes. 20 uL of 3 Complete NanoBRET Nano-Glo Substrate plus Inhibitor Solution (Promega, 1:166 Substrate and 1:500 dilution of Extracellular NanoLuc Inhibitor diluted in Opti-MEM) were added to each well. Plates were incubated with shaking at room temperature for 3 minutes covered with foil. Plates were read on a CLARIOstar microplate reader (BMG LabTech), measuring at 450 nm (donor emission) and 610 nm (acceptor emission). The IC50 values were determined by regression to best fit four-parameter logistic curves using GraphPad Prism.

Protein cereblon, sequence (Q96SW2 whole entry): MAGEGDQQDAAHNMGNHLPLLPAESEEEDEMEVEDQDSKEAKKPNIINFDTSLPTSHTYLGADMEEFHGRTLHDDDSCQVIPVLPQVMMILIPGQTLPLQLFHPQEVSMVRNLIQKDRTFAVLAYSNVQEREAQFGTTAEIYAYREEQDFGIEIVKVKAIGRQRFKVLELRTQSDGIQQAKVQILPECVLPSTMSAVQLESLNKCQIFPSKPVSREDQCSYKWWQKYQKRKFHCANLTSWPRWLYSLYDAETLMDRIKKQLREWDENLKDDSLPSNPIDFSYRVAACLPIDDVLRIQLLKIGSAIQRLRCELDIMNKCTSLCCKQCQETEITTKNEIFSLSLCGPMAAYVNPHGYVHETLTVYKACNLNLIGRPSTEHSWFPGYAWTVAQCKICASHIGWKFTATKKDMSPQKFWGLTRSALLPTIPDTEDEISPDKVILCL

| Compound | EC50 [nM] |
| --- | --- |
| O=C1NC(=O)C2(N3Cc4cc(O[C@H]5CCC[C@@H]5N5CC(c6cccc(F)c6)C5)ccc4C3=O)CC1C2 [US20240246935, Example 87] | > 10000 |
| O=C1NC(=O)C2(N3Cc4cc(O[C@H]5CCC[C@@H]5N5CC(c6ccc(F)cc6Cl)C5)ccc4C3=O)CC1C2 [US20240246935, Example 86] | > 10000 |
| O=C1NC(=O)C2(N3Cc4cc(O[C@H]5CCC[C@@H]5N5CCC(c6ccccc6)C5)ccc4C3=O)CC1C2 (some centres not stated) [US20240246935, Example 107] | > 10000 |

The next compounds have a lower EC50 than those just listed; values first:

| EC50 [nM] | Compound |
| --- | --- |
| 6810 | O=C1NC(=O)C2(N3Cc4cc(O[C@H]5CCCC[C@@H]5N5CC(c6cccc(F)c6)C5)ccc4C3=O)CC1C2 [US20240246935, Example 89] |
| 18 | O=C1CCC(N2Cc3cc(O[C@H]4CCC[C@@H]4N4CC(c5ccc(F)cc5Cl)C4)ccc3C2=O)C(=O)N1 (some centres not stated) [US20240246935, Example 104] |
| 15 | O=C1CCC(N2Cc3cc(O[C@H]4CCCC[C@@H]4N4CC(c5ccc(F)cc5Cl)C4)ccc3C2=O)C(=O)N1 (some centres not stated) [US20240246935, Example 103] |
| 30.2 | O=C1CCC(N2Cc3cc(O[C@H]4CCC[C@@H]4N4CC(c5cccc(F)c5)C4)ccc3C2=O)C(=O)N1 (some centres not stated) [US20240246935, Example 88] |
